Experimental data: US20240158446A1, “CYCLIC COMPOUND HAVING SELECTIVE INHIBITORY ACTION ON KRAS OVER HRAS AND NRAS” (CHUGAI SEIYAKU KABUSHIKI KAISHA, priority 2021, published 2024)
Read-outs that look alike come from different tables or passages of the source.

How the values were obtained:
[1] = molecular target: GDP-bound KRAS wild-type protein (Homo sapiens, UniProt P01116); experiment: Binding to KRAS by surface plasmon resonance (SPR), Single Cycle Kinetics
[2] = molecular target: GDP-bound NRAS wild-type protein (Homo sapiens, UniProt P01111); experiment: Binding to NRAS by surface plasmon resonance (SPR), Single Cycle Kinetics; conditions: for NRAS/KRAS (ratio of KD value with respect to GDP-bound NRAS wild-type protein to KD value with respect to KRAS): SPR KD ratio NRAS/KRAS, class symbols; for NRAS/KRAS (ratio of KD value for NRAS to KD value for KRAS): GDP-bound NRAS wild-type protein vs GDP-bound KRAS wild-type protein
Sequence of GDP-bound NRAS wild-type protein (P01111 whole entry): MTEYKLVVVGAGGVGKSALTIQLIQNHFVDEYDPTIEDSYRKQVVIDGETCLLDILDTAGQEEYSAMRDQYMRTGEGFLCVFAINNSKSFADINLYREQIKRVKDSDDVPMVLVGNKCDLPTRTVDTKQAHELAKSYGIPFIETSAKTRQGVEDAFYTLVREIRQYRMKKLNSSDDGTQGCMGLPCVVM

[3] = molecular target: GDP-bound HRAS wild-type protein (Homo sapiens, UniProt P01112); experiment: Binding to HRAS by surface plasmon resonance (SPR), Single Cycle Kinetics; conditions: for HRAS/KRAS (ratio of KD value with respect to GDP-bound HRAS wild-type protein to KD value with respect to KRAS): SPR KD ratio HRAS/KRAS, class symbols; for HRAS/KRAS (ratio of KD value for HRAS to KD value for KRAS): GDP-bound HRAS wild-type protein vs GDP-bound KRAS wild-type protein
Sequence of GDP-bound HRAS wild-type protein (P01112 whole entry): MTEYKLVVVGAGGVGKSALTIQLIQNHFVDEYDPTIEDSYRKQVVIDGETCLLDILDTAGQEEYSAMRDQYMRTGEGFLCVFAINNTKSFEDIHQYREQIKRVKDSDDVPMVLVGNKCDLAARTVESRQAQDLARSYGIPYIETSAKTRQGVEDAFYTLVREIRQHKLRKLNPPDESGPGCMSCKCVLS

[4] = system: human lung cancer strain NCI-H441;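 further: cell proliferation inhibition after four days measured by CellTiter-Glo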
[5] = SPR Single Cycle Kinetics, GDP-bound KRAS wild-type protein, 1:1 binding model, read-out: KRAS KD
[6] = SPR, Single Cycle Kinetics, GDP-bound KRAS wild-type protein, read-out: KRAS KD

Sequence of GDP-bound KRAS wild-type protein (P01116 whole entry): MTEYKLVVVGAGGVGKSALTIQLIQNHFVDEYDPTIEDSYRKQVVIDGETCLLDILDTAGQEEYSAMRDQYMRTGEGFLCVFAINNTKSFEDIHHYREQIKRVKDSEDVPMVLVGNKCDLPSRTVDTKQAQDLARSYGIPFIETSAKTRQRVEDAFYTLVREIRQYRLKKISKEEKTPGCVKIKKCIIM

Kd [1, 5] | IC50 [4] | Kd [1, 6] | Structure (SMILES) | NRAS/KRAS (ratio of KD value with respect to GDP-bound NRAS wild-type protein to KD value with respect to KRAS) [2] | HRAS/KRAS (ratio of KD value with respect to GDP-bound HRAS wild-type protein to KD value with respect to KRAS) [3] | NRAS/KRAS (ratio of KD value for NRAS to KD value for KRAS) ([2]; SPR) | HRAS/KRAS (ratio of KD value for HRAS to KD value for KRAS) ([3]; SPR) | also measured
 | 129 nM | 2.8 nM | CCC[C@H]1C(=O)N[C@@H]([C@@H](C)CC)C(=O)N(C2CC2)CC(=O)N(C)[C@H]2C/C=C\CCN(C2=O)[C@@H](CC2CCC(F)(F)CC2)C(=O)N(C)CC(=O)N[C@@H](CCc2ccc(Cl)c(Cl)c2)C(=O)N2C[C@H](OC(C)C)C[C@H]2C(=O)NC2(CC(C)(C)C2)C(=O)N(C)[C@@H](C2CCCC2)C(=O)N(C)[C@H](C(=O)N(C)C)CC(=O)N1C [PP2521] |  |  | A (a compound having 10 or more and less than 20 is denoted as A) | A (a compound having 10 or more and less than 20 is denoted as A) | 
 | 59.7 nM | 1.2 nM | CCCOC[C@H]1C(=O)N[C@@H]([C@@H](C)CC)C(=O)N2CCC[C@H]2C(=O)N(C)[C@H]2C/C=C\CCN(C2=O)[C@@H](CC2CCC(F)(F)CC2)C(=O)N(C)CC(=O)N[C@@H](CCc2ccc(C(F)(F)F)c(OC)c2)C(=O)N2C[C@H](OCC)C[C@H]2C(=O)N(C)C2(CCC2)C(=O)N(C)[C@@H](C2CCCC2)C(=O)N(C)[C@H](C(=O)N(C)C)CC(=O)N1C [PP2357] |  |  | A (a compound having 10 or more and less than 20 is denoted as A) | B (a compound having 3 or more and less than 10 is denoted as B) | 
 | 5.7 nM | 0.32 nM | CCCOC[C@H]1C(=O)N[C@@H]([C@@H](C)CC)C(=O)N(C)CC(=O)N(C)[C@H]2C/C=C\CCN(C2=O)[C@@H](CC2CCC(F)(F)CC2)C(=O)N(C)CC(=O)N[C@@H](CCc2ccc(C(F)(F)F)c(OC)c2)C(=O)N2C[C@@H](C)C[C@H]2C(=O)N(C)C2(CCC2)C(=O)N(C)[C@@H](C2CCCC2)C(=O)N(C)[C@H](C(=O)N(C)C)CC(=O)N1C [PP2377] |  |  | A (a compound having 10 or more and less than 20 is denoted as A) | A (a compound having 10 or more and less than 20 is denoted as A) | 
 | 4.6 nM | 0.016 nM | CCC[C@H]1C(=O)N[C@@H]([C@@H](C)CC)C(=O)N(C)CC(=O)N(C)[C@H]2C/C=C\CCN(C2=O)[C@@H](Cc2ccc(C)cc2)C(=O)N(C)CC(=O)N[C@@H](CCc2ccc(C(F)(F)F)c(OC)c2)C(=O)N2C[C@@H](C)C[C@H]2C(=O)N(C)C2(CCC2)C(=O)N(C)[C@@H](C2CCCC2)C(=O)N(C)[C@H](C(=O)N(C)C)CC(=O)N1C [PP2364] |  |  | A (a compound having 10 or more and less than 20 is denoted as A) | B (a compound having 3 or more and less than 10 is denoted as B) | 

Continued, compound first:

Structure (SMILES) | Kd [1, 5] | IC50 [4] | Kd [1, 6] | NRAS/KRAS (ratio of KD value with respect to GDP-bound NRAS wild-type protein to KD value with respect to KRAS) [2] | HRAS/KRAS (ratio of KD value with respect to GDP-bound HRAS wild-type protein to KD value with respect to KRAS) [3] | NRAS/KRAS (ratio of KD value for NRAS to KD value for KRAS) ([2]; SPR) | HRAS/KRAS (ratio of KD value for HRAS to KD value for KRAS) ([3]; SPR) | also measured
CCCOC[C@H]1C(=O)N[C@@H]([C@@H](C)CC)C(=O)N(C)CC(=O)N(C)[C@H]2C/C=C\CCN(C2=O)[C@@H](Cc2ccc(C)cc2)C(=O)N(C)CC(=O)N[C@@H](CCc2cc(F)c(C(F)(F)F)c(F)c2)C(=O)N2C[C@H](OCC)C[C@H]2C(=O)NC2(CC(C)(C)C2)C(=O)N(C)[C@@H](CC(C)(C)C)C(=O)N(C)[C@H](C(=O)N(C)C)CC(=O)N1C [PP2708] | 0.072 nM | 5.1 nM |  | A (a compound having 10 or more and less than 20 is denoted as A) | A (a compound having 10 or more and less than 20 is denoted as A) |  |  | 
CCO[C@@H]1C[C@H]2C(=O)NC3(CCC3)C(=O)N(C)[C@@H](C3CCCC3)C(=O)N(C)[C@H](C(=O)N(C)C)CC(=O)N(C)[C@@H](Cc3ccc(C#N)cc3)C(=O)N[C@@H]([C@@H](C)CC)C(=O)N(C)CC(=O)N(C)[C@H]3CCCCCN(C3=O)[C@@H](Cc3ccc(F)cc3)C(=O)N(C)CC(=O)N[C@@H](CCc3cc(F)c(C(F)(F)F)c(F)c3)C(=O)N2C1 [PP1157] |  | 30.3 nM | 0.061 nM |  |  | B (a compound having 3 or more and less than 10 is denoted as B) | B (a compound having 3 or more and less than 10 is denoted as B) | 
CCOC[C@H]1C(=O)N[C@@H]([C@@H](C)CC)C(=O)N2CCC[C@H]2C(=O)N(C)[C@H]2C/C=C\CCN(C2=O)[C@@H](Cc2ccc(C)cc2)C(=O)N(C)CC(=O)N[C@@H](CCc2cc(F)c(C(F)(F)F)c(F)c2)C(=O)N2C[C@H](OCC)C[C@H]2C(=O)NC2(CC(C)(C)C2)C(=O)N(C)[C@@H](C2CCCC2)C(=O)N(C)[C@H](C(=O)N(C)CC)CC(=O)N1C [PP2428] |  | 4.8 nM | 0.62 nM |  |  | A (a compound having 10 or more and less than 20 is denoted as A) | A (a compound having 10 or more and less than 20 is denoted as A) | 
CCC[C@H]1C(=O)N[C@@H]([C@@H](C)CC)C(=O)N2CCC[C@H]2C(=O)N(C)[C@H]2C/C=C\CCN(C2=O)[C@@H](Cc2ccc(C(F)F)cc2)C(=O)N(C)CC(=O)N[C@@H](CCc2ccc(Cl)c(Cl)c2)C(=O)N2C[C@H](OC(C)C)C[C@H]2C(=O)NC2(CC(C)(C)C2)C(=O)N(C)[C@@H](C(CC)CC)C(=O)N(C)[C@H](C(=O)N(C)C)CC(=O)N1C [PP2640] | 1.4 nM | 84.1 nM |  | AA (a compound having 20 or more is denoted as AA) | A (a compound having 10 or more and less than 20 is denoted as A) |  |  | 
CCC(CC)[C@H]1C(=O)N(C)[C@H](C(=O)N(C)C)CC(=O)N(C)[C@@H](COC)C(=O)N[C@@H]([C@@H](C)CC)C(=O)N2CCC[C@H]2C(=O)N(C)[C@H]2C/C=C\CCN(C2=O)[C@@H](Cc2ccc(C(F)(F)F)cc2)C(=O)N(C)CC(=O)N[C@@H](CCc2ccc(Cl)c(Cl)c2)C(=O)N2C[C@H](OC3CCCC3)C[C@H]2C(=O)NC2(CC(C)(C)C2)C(=O)N1C [PP2651] | 1.9 nM | 147 nM |  | AA (a compound having 20 or more is denoted as AA) | A (a compound having 10 or more and less than 20 is denoted as A) |  |  | 
CCO[C@@H]1C[C@H]2C(=O)NC3(CCC3)C(=O)N(C)[C@@H](C(CC)CC)C(=O)N(C)[C@H](C(=O)N(C)C)CC(=O)N(C)[C@@H](CC)C(=O)N[C@@H]([C@@H](C)CC)C(=O)N(C)CC(=O)N(C)[C@H]3C/C=C\CCN(C3=O)[C@@H](Cc3ccc(C(F)(F)F)cc3)C(=O)N(C)CC(=O)N[C@@H](CCc3ccc(C(F)(F)F)c(OC)c3)C(=O)N2C1 [PP1207] |  | 29.9 nM |  |  |  |  |  | Kd ([1]; SPR, Single Cycle Kinetics, 1:1 binding model, GDP-bound KRAS wild-type protein, read-out: KRAS KD): 0.21 nM; NRAS/KRAS (ratio of KD value for NRAS to KD value for KRAS) ([2]; SPR, KD ratio class): AA (a compound having 20 or more is denoted as AA); HRAS/KRAS (ratio of KD value for HRAS to KD value for KRAS) ([3]; SPR, KD ratio class): A (a compound having 10 or more and less than 20 is denoted as A)
CCC[C@H]1C(=O)N[C@@H]([C@@H](C)CC)C(=O)N(C2CC2)CC(=O)N(C)[C@H]2C/C=C\CCN(C2=O)[C@@H](Cc2ccc(C(F)(F)F)cc2)C(=O)N(C)CC(=O)N[C@@H](CCc2cc(F)c(C(F)(F)F)c(F)c2)C(=O)N2C[C@H](OCC)C[C@H]2C(=O)NC2(CC(C)(C)C2)C(=O)N(C)[C@@H](CC2CCC2)C(=O)N(C)[C@H](C(=O)N(C)C)CC(=O)N1C [PP2768] | 5.5 nM | 120 nM |  | A (a compound having 10 or more and less than 20 is denoted as A) | A (a compound having 10 or more and less than 20 is denoted as A) |  |  | 
CCCO[C@@H]1C[C@H]2C(=O)NC3(CC(C)(C)C3)C(=O)N(C)[C@@H](C3CCCC3)C(=O)N(C)[C@H](C(=O)N3CCCC3)CC(=O)N(C)[C@H]3CCCCc4ccc(cc4)C[C@@H](C(=O)N(C)CC(=O)N[C@@H](CCc4ccc(C(F)(F)F)c(OC)c4)C(=O)N2C1)N1CC/C=C\C[C@@H](C1=O)N(C)C(=O)CN(C)C(=O)[C@H]([C@@H](C)CC)NC3=O [PP3094, (1S,7S,11R,13S,19S,22S,26S,29S,35S,37Z)-19-cyclopentyl-7-[2-[3-methoxy-4-(trifluoromethyl)phenyl]ethyl]-3,3′,3′,18,21,25,31,34-octamethyl-29-[(1S)-1-methylpropyl]-11-propoxy-22-(pyrrolidine-1-carbonyl)spiro[3,6,9,15,18,21,25,28,31,34,41-undecazapentacyclo[24.15.9.2^43,46.1^35,41.0^9,13]tripentaconta-37,43(52),44,46(51)-tetraene-16,1′-cyclobutane]-2,5,8,14,17,20,24,27,30,33,53-undecone] |  |  | 0.081 nM |  |  | A (a compound having 10 or more and less than 20 is denoted as A) | B (a compound having 3 or more and less than 10 is denoted as B) | Kd ([1]; SPR, Single Cycle Kinetics, 1:1 binding model, read-out: KD value with respect to GDP-bound KRAS wild-type protein): 0.081 nM; ratio of the KD value with respect to GDP-bound NRAS wild-type protein to the KD value with respect to KRAS ([2]; SPR, KD(NRAS)/KD(KRAS)): A (a compound having 10 or more and less than 20 is denoted as A); ratio of the KD value with respect to GDP-bound HRAS wild-type protein to the KD value with respect to KRAS ([3]; SPR, KD(HRAS)/KD(KRAS)): B (a compound having 3 or more and less than 10 is denoted as B); IC50 ([4]; read-out: NCI-H441 cell proliferation inhibitory activity, 50% proliferation inhibitory concentration (IC50 value), NCI-H441, four days, CellTiter-Glo): 2.2 nM
